According to ChEMBL document CHEMBL2303647, “Data associated with the publication PLoS ONE, 8(3), e57888, (2013) PMID: 23505445. Compounds: GSK PKIS; Assays: NIH NCATS”:

Columns and labels:
[1] = molecular target: T1, Coelenterazine h 2-monooxygenase (Renilla reniformis, UniProt P27652)
T1 sequence (P27652 whole entry): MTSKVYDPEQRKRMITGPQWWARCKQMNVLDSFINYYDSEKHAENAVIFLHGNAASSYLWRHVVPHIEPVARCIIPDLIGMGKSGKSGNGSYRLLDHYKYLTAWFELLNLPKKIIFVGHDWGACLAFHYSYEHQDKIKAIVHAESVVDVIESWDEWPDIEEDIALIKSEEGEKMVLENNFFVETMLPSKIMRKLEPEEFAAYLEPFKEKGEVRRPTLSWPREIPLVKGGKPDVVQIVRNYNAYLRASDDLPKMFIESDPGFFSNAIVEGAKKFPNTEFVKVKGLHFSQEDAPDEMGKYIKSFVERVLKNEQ
Description: GSK_PKIS: Inhibition of Sea Pansy Luciferase (Data from PubChem: AID 652015) [NIH NCATS]

[2] = molecular target: Luciferin 4-monooxygenase (Photinus pyralis, UniProt P08659)
Luciferin 4-monooxygenase, sequence (P08659 whole entry): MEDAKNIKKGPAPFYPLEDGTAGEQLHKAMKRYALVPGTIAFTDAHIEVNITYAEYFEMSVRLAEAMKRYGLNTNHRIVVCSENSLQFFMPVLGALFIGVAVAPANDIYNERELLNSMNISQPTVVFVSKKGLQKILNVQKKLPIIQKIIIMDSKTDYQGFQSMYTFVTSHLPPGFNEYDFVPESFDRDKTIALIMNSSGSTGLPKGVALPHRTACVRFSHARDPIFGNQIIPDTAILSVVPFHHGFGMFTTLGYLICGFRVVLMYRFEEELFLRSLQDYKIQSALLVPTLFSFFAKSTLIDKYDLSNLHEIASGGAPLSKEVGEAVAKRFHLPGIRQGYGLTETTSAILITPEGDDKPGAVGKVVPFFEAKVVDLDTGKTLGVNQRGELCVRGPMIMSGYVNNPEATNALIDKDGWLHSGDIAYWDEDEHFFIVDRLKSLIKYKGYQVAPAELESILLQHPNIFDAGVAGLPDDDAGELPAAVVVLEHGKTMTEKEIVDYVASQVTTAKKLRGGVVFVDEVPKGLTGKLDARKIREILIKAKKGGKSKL
Description: GSK_PKIS: Inhibition of Firefly Luciferase (Data from PubChem: AID 652016) [NIH NCATS]

AC50 ([1]; read-out: AC50) | AC50 ([2]; read-out: AC50) | SMILES | AC50 [1] | AC50 [2]
– | – | COc1cc(N2CCN(C(C)C)CC2)ccc1Nc1nc(Nc2ccc(F)cc2C(=O)NC[C@@H](O)CO)c2cc[nH]c2n1 [GSK-1392956A] | Phenotype: Inactive; Curve_Description: None | Phenotype: Inactive; Curve_Description: None
0.0005 µM | 32.6 µM | COc1cccc(-n2ncc3c(N/N=C/c4ccc(F)cc4)ncnc32)c1 [GW817396X] | – | –
– | – | CNC(=O)c1cc(-c2ccc(F)cc2)cc(-c2ccc(S(=O)(=O)N3CCCC3)cc2)c1N [GSK-635416A] | Phenotype: Activator; Curve_Description: None | Phenotype: Inactive; Curve_Description: None
– | – | COc1ccc(-c2oc3ncnc(N)c3c2-c2ccc(NC(=O)Nc3cc(C(F)(F)F)ccc3F)cc2)cc1.Cl [GW768505A] | Phenotype: Inactive; Curve_Description: None | Phenotype: Inactive; Curve_Description: None
– | – | CCn1c(-c2nonc2N)nc2cncc(C(=O)N3CCNCC3)c21.Cl | Phenotype: Activator; Curve_Description: None | Phenotype: Inactive; Curve_Description: None
– | 18.3 µM | N#Cc1c(NC(=O)c2cccc3ccccc23)sc2c1CCCC2 [GW620972X] | Phenotype: Inactive; Curve_Description: None | –
– | – | NC(=O)c1sc(-n2cnc3cc(C(F)(F)F)ccc32)cc1OCc1ccccc1Br [GW853609X] | Phenotype: Inactive; Curve_Description: None | Phenotype: Inactive; Curve_Description: None
36.6 µM | – | NS(=O)(=O)c1ccc(Nc2cc(-c3ccc(O)c(F)c3)n[nH]2)cc1 [GW831091X] | – | Phenotype: Inactive; Curve_Description: None
18.3 µM | 20.6 µM | Fc1ccc(-c2ncn(C3CCNCC3)c2-c2ccnc(Oc3ccccc3)n2)cc1 | – | –
– | – | CCNC(=O)O[C@H]1CN[C@H](C#Cc2cc3ncnc(Nc4ccc(OCc5cccc(F)c5)c(Cl)c4)c3s2)C1 [GSK-192082A] | Phenotype: Inactive; Curve_Description: None | Phenotype: Inactive; Curve_Description: None
– | 29.1 µM | Cc1cc(O)cc(C)c1/C=C/c1cncc(-c2nn[nH]n2)c1.Cl [GW441806A] | Phenotype: Inactive; Curve_Description: None | –
– | – | Cl.ON=C1CCc2cc(-c3nc(C4CCNCC4)[nH]c3-c3ccncc3)ccc21 | Phenotype: Inactive; Curve_Description: None | Phenotype: Inactive; Curve_Description: None
– | – | COc1ccc(CNC(=O)c2ccc(-c3cc(-c4nnc(C)o4)ccc3C)cc2)cc1 [GW701032X] | Phenotype: Inactive; Curve_Description: None | Phenotype: Inactive; Curve_Description: None
– | – | Fc1ccc(Nc2nccc(-c3c(-c4ccc(C(F)(F)F)cc4)nn4ncccc34)n2)cc1F [GW828529X] | Phenotype: Inactive; Curve_Description: None | Phenotype: Inactive; Curve_Description: None
– | – | COC(=O)c1sc(-n2cnc3cc(OC)c(OC)cc32)cc1OCc1ccccc1C(F)(F)F [GSK-1030058A] | Phenotype: Inactive; Curve_Description: None | Phenotype: Inactive; Curve_Description: None
– | – | CCn1c(-c2nonc2N)nc2c(C#CC(C)(C)O)nc(CN3CCCC3)cc21 [GSK-1000163A] | Phenotype: Inactive; Curve_Description: None | Phenotype: Inactive; Curve_Description: None
32.6 µM | – | CN1CCC(C(=O)Nc2n[nH]c3nc(-c4ccc(O)cc4)c(Br)cc23)CC1 | – | Phenotype: Inactive; Curve_Description: None
– | – | Cc1cc(O)cc(C)c1/C=C/c1cncc(C(N)=O)c1 [GW435821X] | Phenotype: Inactive; Curve_Description: None | Phenotype: Inactive; Curve_Description: None
– | 16.3 µM | COc1ccc(-c2cc(-c3c[nH]nc3-c3ccccn3)ccn2)cc1 [GW679410X] | Phenotype: Inactive; Curve_Description: None | –
– | 32.6 µM | Fc1ccc(-c2ncn(C3CCNCC3)c2-c2ccnc(Oc3ccc4c(c3)OCO4)n2)cc1 | Phenotype: Inactive; Curve_Description: None | –
41.1 µM | 0.116 µM | COC(=O)Nc1nc2cc(Oc3ccc(NC(=O)Nc4cccc(C(=O)O)c4)cc3)ccc2[nH]1 [GW701427A] | – | –
– | – | Cc1ccc2c(c1)/C(=N/Nc1ccc(S(N)(=O)=O)cc1)C(=O)N2 [GW275944X] | Phenotype: Inactive; Curve_Description: None | Phenotype: Inactive; Curve_Description: None
– | – | NC(=O)Cc1ccccc1Oc1nccc(-c2c(-c3ccc(F)cc3)ncn2C2CCNCC2)n1 | Phenotype: Inactive; Curve_Description: None | Phenotype: Inactive; Curve_Description: None

AC50 ([1]; read-out: AC50) | AC50 ([2]; read-out: AC50) | SMILES | AC50 [1] | AC50 [2]
– | 4.61 µM | c1cc(-c2cnn3nc(N4CCOCC4)ccc23)nc(NC2CC2)n1 [GW708336X] | Phenotype: Inactive; Curve_Description: None | –
– | 5.8 µM | COc1cccc(-c2c[nH]c3c(N/N=C/c4ccncc4)ncnc23)c1 [GW814408X] | Phenotype: Inactive; Curve_Description: None | –
– | – | O=C(Nc1n[nH]c2nnc(-c3cccnc3)cc12)C1CC1.O=C(O)C(F)(F)F | Phenotype: Inactive; Curve_Description: None | Phenotype: Inactive; Curve_Description: None
– | 41.1 µM | CC(C)(CO)CNC(=O)c1ccc2c(c1)/C(=N/Nc1ccc(S(N)(=O)=O)cc1)C(=O)N2 [GW301784X] | Phenotype: Inactive; Curve_Description: None | –
32.6 µM | – | Cc1cc(-c2ccccn2)cc(C)c1/C=C/c1cncc(-c2nn[nH]n2)c1.Cl [GW459057A] | – | Phenotype: Inactive; Curve_Description: None
– | – | Cc1ccc2c(-c3ccnc(Nc4ccc5c(c4)OCCO5)n3)c(-c3ccc(C(F)(F)F)cc3)nn2n1 [GW832467X] | Phenotype: Inactive; Curve_Description: None | Phenotype: Inactive; Curve_Description: None
– | 1.03 µM | Cl.N#Cc1cccc(Nc2ncc(-c3ccccc3)o2)c1 [GW627834A] | Phenotype: Inactive; Curve_Description: None | –
– | 29.1 µM | COc1cc(C=NNc2ncnc3c2cnn3Cc2ccccc2)ccc1O [GW643971X] | Phenotype: Activator; Curve_Description: None | –
– | 18.3 µM | CCC(=O)Nc1ccc(C)c(-c2ccc(C(=O)NCC3CC3)cc2)c1 [GW796921X] | Phenotype: Inactive; Curve_Description: None | –
18.3 µM | 13 µM | Cc1c2ccc(N(C)c3ccnc(Nc4cccc(S(N)(=O)=O)c4)n3)cc2nn1C [GW771127A] | – | –
– | – | Cc1cc(O)cc(C)c1/C=C/c1cncc(C(=O)OC(C)(C)C)c1 [GW439255X] | Phenotype: Inactive; Curve_Description: None | Phenotype: Inactive; Curve_Description: None
– | – | O=C1NC(=O)C(c2cccc(Cl)c2)=C1Nc1ccc(Cl)c(C(=O)O)c1 | Phenotype: Inactive; Curve_Description: None | Phenotype: Inactive; Curve_Description: None
– | 20.6 µM | O=C(Nc1n[nH]c2nc(-c3ccc(O)cc3)c(Br)cc12)C1CC1 | Phenotype: Inactive; Curve_Description: None | –
20.6 µM | – | COc1ccc(-c2coc3ncnc(N)c23)cc1 [GW642125X] | – | Phenotype: Inactive; Curve_Description: None
– | 16.3 µM | O=C(Nc1n[nH]c2cc(-c3cc(F)ccc3F)ccc12)C1CC1 | Phenotype: Inactive; Curve_Description: None | –
– | 16.3 µM | COc1cccc(-n2cnc3c(N/N=C/c4ccncc4)ncnc32)c1 [GW813360X] | Phenotype: Inactive; Curve_Description: None | –
36.6 µM | 41.1 µM | NS(=O)(=O)c1ccc(N/N=C2\C(=O)Nc3ccc(Cl)cc32)cc1 [GW280670X] | – | –
– | – | CCn1c(-c2nonc2N)nc2c(C#CC(C)(C)O)ncc(OC3CCNCC3)c21.O=C(O)C(F)(F)F [GSK-619487A] | Phenotype: Inactive; Curve_Description: None | Phenotype: Inactive; Curve_Description: None
– | 32.6 µM | Nc1nc(-c2ccccn2)c(-c2ccc3ncccc3n2)s1 [GW693481X] | Phenotype: Inactive; Curve_Description: None | –
18.3 µM | 16.3 µM | CN(C)c1cc2c(Nc3ccc4nc(Cc5ccccc5)[nH]c4c3)ncnc2cn1 [GW301888X] | – | –
– | 16.3 µM | COC(=O)Nc1nc2cc(Oc3cccc(NC(=O)Nc4cc(C(F)(F)F)ccc4F)c3)ccc2[nH]1.Cl [GW659386A] | Phenotype: Inactive; Curve_Description: None | –
– | 41.1 µM | NC(=O)c1cc(-c2ccncc2)cc(-c2ccccc2)c1N [GSK-625137A] | Phenotype: Inactive; Curve_Description: None | –
– | 32.6 µM | O=C(O)/C=C/C(=O)O.OCCCNc1nccc(-c2c(-c3ccc(F)cc3)nn3cc(C(F)(F)F)ccc23)n1 [GW569293E] | Phenotype: Inactive; Curve_Description: None | –

SMILES | AC50 ([1]; read-out: AC50) | AC50 ([2]; read-out: AC50) | AC50 [1] | AC50 [2]
Cc1ccc(C(=O)NC2CC2)cc1-c1ccc2[nH]ncc2c1 [GW820759X] | 20.6 µM | 18.3 µM | – | –
Fc1ccc(-c2ncn(C3CCNCC3)c2-c2ccnc(Oc3ccc(Oc4ccccc4)cc3)n2)cc1 | 20.6 µM | – | – | Phenotype: Inactive; Curve_Description: None
CCn1c(-c2nonc2N)nc2c(C#CCN)ncc(OCCCN)c21.O=C(O)C(F)(F)F [GSK-561866B] | 23.1 µM | – | – | Phenotype: Inactive; Curve_Description: None
COc1ccc2ncn(-c3cc(O[C@H](C)c4ccccc4C(F)(F)F)c(C(N)=O)s3)c2c1 [GSK-317315A] | 20.6 µM | – | – | Phenotype: Inactive; Curve_Description: None
C[C@@H](Oc1cc(-n2cnc3ccc(OCC4CCN(C)CC4)cc32)sc1C(N)=O)c1ccccc1Cl [GSK-571989A] | 20.6 µM | – | – | Phenotype: Inactive; Curve_Description: None
CS(=O)(=O)CCNCc1ccc(-c2ccc3ncnc(Nc4ccc(OCc5ccccc5)c(Br)c4)c3c2)o1.Cl [GW580496A] | – | 20.6 µM | Phenotype: Inactive; Curve_Description: None | –
